Measurements taken from ChEMBL document CHEMBL3085656, “A medicinal chemistry perspective for targeting histone H3 lysine-79 methyltransferase DOT1L” (J Med Chem, 2013).

How the values were obtained:
cells [1] = settings: Homo sapiens, MLL
THP-1 = assay: cells; settings: Homo sapiens
MOLM-13 = assay: cells; settings: Homo sapiens
cells [2] = settings: Homo sapiens, MLL; remark: listed apart in the source
MV4-11 = assay: cells; settings: Homo sapiens

`CC(C)N(CCCNC(=O)Nc1ccc(C(C)(C)C)cc1)C[C@H]1O[C@@H](n2ccc3c(N)ncnc32)[C@H](O)[C@@H]1O` showed an EC50 (cells [1]) of 700 nM, an EC50 (THP-1) of 4 nM and an EC50 (MOLM-13) of 4 nM. The EC50 (cells [2]) was 700 nM and the EC50 (MV4-11) was 4 nM.
Molecule `CC(C)N(C[C@H]1O[C@@H](n2cnc3c(N)ncnc32)[C@H](O)[C@@H]1O)[C@H]1C[C@@H](CCc2nc3cc(C(C)(C)C)ccc3[nH]2)C1` [PINOMETOSTAT] has an EC50 (THP-1) of 4 nM, an EC50 (MOLM-13) of 4 nM and an EC50 (MV4-11) of 4 nM.
